Source: patent publication US4956389A, “Compounds having calcium blocking activity” (priority 1982, dated 1990)
Read-outs that look alike come from different tables or passages of the source.

Assays:
[1] = Acute toxicity (Litchfield and Wilcoxon); conditions: rat, in vivo, male rats, read-out: toxicity DL50
Description: The acute toxicity has been determined by the oral route, by the venous route in male rats according to the method of Litchfield and Wilcoxon (J. Pharm. Exp. Therap., (1949), 96, p. 99).

dogs = assay: Effect on the myocardial infarct in the subacute phase in dogs (method of Harris); type: in vivo, dog; conditions: 0.1 mg/kg intravenously, three times within 48 hours
Method: The tying up of the […] coronary artery by the method of Harris causes the following effects:
The treatment with YS 035 in the dose of 0.1 mg/kg intravenously, carried after tying the coronary artery and three times within 48 hours in the same dose has provided the following results: […]

phosphodiesterase = assay: Inhibition of the phosphodiesterase activity (method of K. G. Nair); type: biochemical
Method: The inhibition of phosphodiesterase activity of YS 035 and of papaverine has been assessed according to the method of K. G. Nair (Biochemistry, 5, 150, 1966).
It has been used a medium containing:
2.5 ml of buffer tris-HCl 0.1M pH 7.4;
50 μl CAMP "Sigma" (1 mg/ml);
5 μl Adenosin deaminase (2 mg/ml);
20 μl of alkaline phosphatase "Sigma" (2.6 mg/ml);
15 μl of phosphodiesterase (10 mg/ml).
YS 035 has been added up to a final concentration of 100 mM and Papaverine to a concentration of 10 mM.

[2] = tested on: mitochondria of liver of rats; assay: Study on the Ca2+-efflux in mitochondria of liver of rats; type: biochemical, rat; conditions: 250 μM
Description: The mitochondria of liver of rats prepared as in the preceding experiment were "charged" with Ca and subsequently, taken in a medium deprived of this ion. In the presence of an uncoupling agent or "Ruthenium Red", there is a flow of Ca^2+ ion from the mitochondria into the medium.
The results reported in Table 4 are expressed as the quantity of Ca transferred from the mitochondria per mg of protein per minute.

calcium entry = assay: Calcium antagonistic activity (general statement); conditions: compared with nifedipine
aorta of rabbits = assay: Antagonistic activity on the contractions produced by arachidonic acid on the aorta of rabbits, study in vitro; set-up: species or system rabbit
Method: The study has been carried out by comparison with Nicardipine using autologous blood as the perfusion liquid. The addition of 0.1 mg of arachidonate to the liquid induces an isometric contraction of the aorta which is registered by a transducer. […] This phenomenon is shown by the relaxation which follows the addition of arachidonate to the perfusion blood. This effect may be noted with 0.1 mg/kg of YS 035 and 1 mg/kg of Nicardipine.

rats [3] = assay: Anti-arrythmic and antiischemic effect in rats (left coronary artery tied); type: in vivo, rat
Method: The left coronary artery, when it is tied, induces in the anesthetized rats a precocious arrythmia (30 minutes) particularly ectopic beats, ventricular tachycardia (VT), ventricular fibrillation (VF) according to the methods of Selye 1960, Clark 1980 and Parratt 1982.

rats [4] = assay: Antagonistic effect to biochemical disturbances during the post-oligemic period in rats; type: in vivo, rat
Method: Oligemia in rats is caused by simultaneous bilateral occlusion of the carotid arteries associated with a slight decrease (8-9 kPa) of blood pressure and is maintained for 60 minutes. After removal of the occlusion, the post-oligemic period is followed for several days. In this case, the observation is continued up to the third day, at the time during which the brain accumulation of Ca^++ ions reaches the maximum.
The substances YS 035 or Nicardipine respectively, are administered to rats, 1, 5, 18, 24, 42 and 71 hours after having removed the carotid occlusion. The rats are sacrificed after 72 hours and the tissues are rapidly removed in order to determine their content of water, calcium and potassium.

[5] = tested on: synaptosomes of the brain of rats; assay: Inhibition of the Ca2+-uptake in synaptosomes of the brain of rats; type: biochemical, rat; conditions: 250 μM
Method: The synaptosomes have been prepared from an homogenate of the brain of rats by centrifugation in the gradient of Filcoll at 23,500 rpm for a period of 30 minutes and diluted to 1.5 mg/cc in the medium constituted by:
After 15 minutes of preincubation, ^45 CaCl2, final concentration 1 mM (0.2μCi/cc is added to the medium).
The first determination has been carried out two minutes after the addition. […] After each period, the reaction has been stopped by centrifugation and the radioactivity has been determined in the supernatant as well as in the pellet. The latter had been denatured previously with PCA, neutralized and subsequently centrifuged.

## COc1ccc(CCN(C)CCc2ccc(OC)c(OC)c2)cc1OC [YS 035, N-methyl-N-bis-(3,4-dimethoxy-phenyl-ethyl)amine]
[1]; iv, venous route
  LD50: 19 mg/kg
[1]; oral route
  LD50: 178 mg/kg
dogs
  consumption of glucose in the myocardium (in words): not changed
  consumption of lactate (in words): has a tendency to return to normality
  consumption of oxygen (in words): increases substantially
  coronary blood flow (in words): remains similar to that of the control groups, or at the most tends to increase moderately
  coronary vascular resistance (in words): not only is reduced, but becomes inferior to that of the control group
  index of the aortic flow (in words): not changed
  index of work of the left ventricle (in words): significantly higher than that present in the dogs with the infarct
  ratio DPTI/TTI (in words): not changed
  uptake of the free fatty acids (in words): increases and reaches also a value twice the basal flow measured in healthy control animals
phosphodiesterase; general statement
  inhibiting activity on the phosphodiesterases (in words): completely devoid of inhibiting activity on the phosphodiesterases
phosphodiesterase; up to a final concentration of 100 mM
  inhibition of phosphodiesterase activity (in words): completely inactive
[2]
  uncoupling action (in words): does not exhibit this action
[2]; control 0.7
  Ca2+-efflux induced by Ruthenium red: 0.6 n g ions/min. mg/prot
[2]; control 8.3
  Ca2+-efflux induced by uncoupling agent: 5.4 n g ions/min. mg/prot
Calcium entry
  calcium antagonistic activity (in words): strong calcium antagonistic activity, comparable to nifedipine
Aorta of rabbits; N = 4
  Contraction of the first portion of the aorta: 48 ± 6.7 mm
Aorta of rabbits; Oryctolagus cuniculus, dose 0.01 mg·Kg^-1, read-out: Contraction of the second and third portion of the aorta, % Variation
  inhibition at 0.01 mg/kg: 42 ± 31%
Aorta of rabbits; Oryctolagus cuniculus, dose 0.1 mg·Kg^-1, second and third portion, read-out: % Variation, small contractions observed occasionally prior to relaxation (value in brackets)
  inhibition at 0.1 mg/kg: 60 ± 29.3%
Aorta of rabbits; Oryctolagus cuniculus, dose 1.0 mg·Kg^-1, read-out: Contraction of the second and third portion of the aorta, % Variation
  inhibition at 1 mg/kg: 132 ± 16.1%
Aorta of rabbits; Oryctolagus cuniculus, line without dose, below dose 1.0 mg·Kg^-1, read-out: Contraction of the second and third portion of the aorta, % Variation
  inhibition at 1 mg/kg: 16%
Aorta of rabbits; Oryctolagus cuniculus, autologous blood perfusion, 0.1 mg arachidonate, read-out: dose at which relaxation following the addition of arachidonate is noted
  minimal effective dose: 0.1 mg/kg
Aorta of rabbits; YS 035 compared with Nicardipine
  inhibitory effect on the contraction produced by the arachidonate (in words): comparable
Rats [3]; 0.156 mg/Kg I.V.
  % Death: 20%
  Latent Time Death: 26 min
  Latent time: 22
  No. ectopic beats: 907
  VF: 4 s
  VF (%): 40%
  VT: 34 s
Rats [3]; 0.625 mg/Kg I.V.
  % Death: 0%
  Latent Time Death: > 30 min
  Latent time: 30
  No. ectopic beats: 646
  VF: 0 s
  VF (%): 0%
  VT: 9 s
Rats [3]; 1.25 mg/Kg I.V.
  % Death: 0%
  Latent Time Death: > 30 min
  Latent time: 30
  No. ectopic beats: 684
  VF: 0 s
  VF (%): 0%
  VT: 29 s
Rats [3]; 2.5 mg/Kg I.V.
  % Death: 0%
  Latent Time Death: > 30 min
  Latent time: 26
  No. ectopic beats: 725
  VF: 9 s
  VF (%): 20%
  VT: 34 s
Rats [3]; 5 mg/Kg I.V.
  % Death: 0%
  Latent Time Death: > 30 min
  Latent time: 21
  No. ectopic beats: 1287
  VF: 5 s
  VF (%): 50%
  VT: 62 s
Rats [3]; 10 mg/Kg I.V.
  % Death: 0%
  Latent Time Death: > 30 min
  Latent time: 30
  No. ectopic beats: 474
  VF: 0 s
  VF (%): 0%
  VT: 9 s
Rats [3]; 20 mg/Kg I.V.
  % Death: 0%
  Latent Time Death: > 30 min
  Latent time: 20
  No. ectopic beats: 777
  VF: 10 s
  VF (%): 50%
  VT: 22 s
Rats [3]; above 10 mg/kg, endovenous
  dose-effect relationship (in words): there is a regression of the results
Rats [3]; endovenous, between 0.625 and 10 mg/kg
  onset of VF, VT and death (in words): prevents the onset of the most serious arrythmia such as VF and VT and the death
Rats [4]; 3 mg·Kg^-1 P.O. 7×, 72 h, post-oligemic controls 28.2 ± 3.22
  Cerebral concentration, Ca++: 10.7 ± 2.46 mmol·Kg^-1 of dry substance
Rats [4]; 3 mg·Kg^-1 P.O. 7×, 72 h, post-oligemic controls 80.1 ± 0.37
  Cerebral concentration, H2O: 79.0 ± 0.44%
Rats [4]; 3 mg·Kg^-1 P.O. 7×, 72 h, post-oligemic controls 366.2 ± 12.58
  Cerebral concentration, K+: 420.0 ± 11.85 mmol·Kg^-1 of dry substance
Rats [4]; rat, in vivo
  intracellular accumulation of Ca++ ions (in words): reduce substantially
  seriousness of the cerebral edema (in words): capable of reducing the seriousness of the cerebral edema
[5]
  inhibitory activity on the calcium uptake (in words): comparable to the activity exhibited by Nifedipine
[5]; 45CaCl2 1 mM, control 80 ± 7
  Ca2+-uptake: 47 ± 4 n g ions/mg prot/15 min
